This note sets out measurements from US12121614B2, “Delayed release composition for peroral administration” (VICORE PHARMA AB, priority 2020, dated 2024).

A short description of the data set: Dissolution studies of C21 sodium salt in buffers of different pH. Type of data set: physicochemical. How it is done:
50.7 mg of C21 sodium salt (Ardena, Riga, Latvia) was added to 900 mL of 0.09M carbonate buffer (pH 8.95) at a temperature of 37±3° C. with stirring. […] After 15 minutes of stirring, 2M acetic acid solution was added dropwise to provide a pH of 4.52. Evolution CO2 was noted. […] After additional stirring for a further 1.5 hours, 1M NaOH was added to increase pH to 6.8.
51.2 mg of C21 sodium salt was added to 900 mL of acetate buffer (pH 4.4) at the same temperature with stirring. […] After stirring for 1 hour, 1M NaOH solution was added dropwise to increase the pH to 7.2.
53.2 mg of C21 sodium salt was added to 900 mL 0.1M of HCl buffer (pH 1.0) at the same temperature with stirring. […] After 20 minutes of stirring, 1M NaOH solution was added dropwise to increase the pH to 4.5.
51.0 mg of C21 sodium salt was added to 900 mL of 0.1M citrate buffer (pH 4.42) at the same temperature with stirring. The added compound formed a thin slurry. It seemed that nothing had dissolved.
50.8 mg of C21 sodium salt was added to 900 mL of an acetate buffer (pH 4.49) at the same temperature. […] After stirring for 1 hour, a 1M NaOH solution was added dropwise to increase the pH to 6.8.

Take `CCCCOC(=O)[N-]S(=O)(=O)c1sc(CC(C)C)cc1-c1ccc(Cn2ccnc2)cc1.[Na+]` [C21 sodium salt]: for the setting “50.7 mg in 900 mL 0.09M carbonate buffer pH 8.95, 37±3° C., stirring”, the “dissolution behaviour on addition (A)” value is “dissolved instantly”. Besides, under “50.8 mg in 900 mL acetate buffer pH 4.49, 37±3° C.”, the “dissolution behaviour on addition (E)” value was “formed a thin slurry which floated on the surface”. Further, for the setting “51.0 mg in 900 mL 0.1M citrate buffer pH 4.42, 37±3° C., stirring”, the “dissolution behaviour on addition (D)” value is given as “formed a thin slurry. It seemed that nothing had dissolved”. Besides, under “51.2 mg in 900 mL acetate buffer pH 4.4, 37±3° C., stirring”, the “dissolution behaviour on addition (B)” value was “formed a thin slurry which was floated on the surface top”. Moreover, the “dissolution behaviour on addition (C)” value (53.2 mg in 900 mL 0.1M HCl buffer pH 1.0, 37±3° C., stirring) was “dissolved instantly”. The “appearance after raising pH (A)” value ((A) 1M NaOH added to pH 6.8, stirring another 1.5 hours) was “no significant change in appearance (small white particles)”. Also, the “appearance after acidification (A)” value ((A) 2M acetic acid added to pH 4.52, after stirring for 1 hour) is “formation of small white particles”. In addition, the “appearance after raising pH (B)” value ((B) after 1 hour, 1M NaOH added to pH 7.2) was “slurry became thinner and pieces became smaller and goo-like”. In addition, the “appearance after further stirring (B)” value ((B) pH 7.2, stirring another 1.5 hours) is reported as “no significant change in appearance (small goo-like particles)”. In addition, the “precipitation after raising pH (C)” value ((C) after 20 minutes, 1M NaOH added to pH 4.5) is on record as “no precipitation was observed”. For the same molecule, where the note is “(C) pH 4.5, after stirring for 2 hours”, the “appearance after further stirring (C)” value is “solution still was clear”. For the same molecule, the “decomposition of C21 by UPLC (D)” value ((D) citrate buffer pH 4.42, end of the experiment (7 hours)) is “no decomposition”. Further, the “appearance after further stirring (D)” value ((D) citrate buffer pH 4.42, stirring for 7 hours) is recorded as “no significant change in appearance”. Besides, the “decomposition of C21 by UPLC (E)” value ((E) acetate buffer pH 4.49 then pH 6.8, end of the experiment) is “no decomposition”. Also, the “appearance after raising pH (E)” value ((E) after 1 hour, 1M NaOH added to pH 6.8) is “slurry became slightly thinner”. Besides, for the setting “(E) pH 6.8, stirring another hour”, the “appearance after further stirring (E)” value is “no significant change in appearance”.
